This note sets out measurements from patent publication US6939858B2, “Malto-oligosaccharide derivatives and use thereof” (Kikkoman Corporation, priority 2000, dated 2005).

Experiment [1] deals with T1, HSA (α-amylase derived from human salivary gland) (Homo sapiens, UniProt P0DUB6).
T1 construct: purchased International Reagents Corp., Japan Calibzyme·AMY
T1 sequence (P0DUB6 16-511): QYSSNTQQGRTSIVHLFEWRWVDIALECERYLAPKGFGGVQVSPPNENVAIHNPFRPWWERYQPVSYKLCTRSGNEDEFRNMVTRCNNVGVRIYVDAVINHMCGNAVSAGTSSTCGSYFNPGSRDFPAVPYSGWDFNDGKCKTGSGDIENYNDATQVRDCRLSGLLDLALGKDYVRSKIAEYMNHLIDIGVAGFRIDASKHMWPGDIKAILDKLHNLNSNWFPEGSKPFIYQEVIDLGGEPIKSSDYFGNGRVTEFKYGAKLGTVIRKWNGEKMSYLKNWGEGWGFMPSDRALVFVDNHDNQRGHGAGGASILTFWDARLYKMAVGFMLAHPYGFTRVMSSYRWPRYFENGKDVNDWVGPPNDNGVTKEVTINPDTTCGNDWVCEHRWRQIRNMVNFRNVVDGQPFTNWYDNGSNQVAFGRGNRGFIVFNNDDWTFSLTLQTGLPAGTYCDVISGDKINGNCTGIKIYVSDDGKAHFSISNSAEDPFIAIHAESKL
The experiment can be described thus: Inhibition of human α-amylase activity in vitro (blue starch, Neo·Amylase Test), HSA. The format is biochemical. As to conditions: final concentration of inhibitor reducing 50% of the activity of the HSA solution; 37° C., 30 minutes. On the procedure: (§1) Purified water was added to commercial HPA and HSA to dissolve them to a concentration of 350 IU/1 to prepare an α-amylase solution. “Calibzyme·AMY” (produced by International Reagents Corp., Japan) was used as this commercial human α-amylase. The α-amylase activity was determined with reference to the calibration curves of a commercial α-amylase determining reagent “Neo·Amylase Test, Daiichi” (produced by Daiichi Pure Chemicals Co., Ltd., Japan).
(§2) To 100 μl of the HPA or HSA solution were added 3.0 ml of purified water, 1.0 ml of inhibitor solution and one tablet of blue starch of “Neo·Amylase Test, Daiichi” (produced by Daiichi Pure Chemicals Co., Ltd., Japan). After stirring by a mixer for about 10 seconds, the mixture was warmed at 37° C. for 30 minutes and then further stirred by adding 1.0 ml of a 0.5 N sodium hydroxide solution to cease the reaction, after which the solution was centrifuged (1,500 G, 5 min.) and absorbance of the supernatant at 620 nm was measured. As a blank, purified water was used instead of the inhibitor solution.

The target in experiment [2] is T2, HPA (α-amylase derived from human pancreatic juice) (Homo sapiens, UniProt P04746).
T2 construct: purchased International Reagents Corp., Japan Calibzyme·AMY
T2 sequence (P04746 16-511): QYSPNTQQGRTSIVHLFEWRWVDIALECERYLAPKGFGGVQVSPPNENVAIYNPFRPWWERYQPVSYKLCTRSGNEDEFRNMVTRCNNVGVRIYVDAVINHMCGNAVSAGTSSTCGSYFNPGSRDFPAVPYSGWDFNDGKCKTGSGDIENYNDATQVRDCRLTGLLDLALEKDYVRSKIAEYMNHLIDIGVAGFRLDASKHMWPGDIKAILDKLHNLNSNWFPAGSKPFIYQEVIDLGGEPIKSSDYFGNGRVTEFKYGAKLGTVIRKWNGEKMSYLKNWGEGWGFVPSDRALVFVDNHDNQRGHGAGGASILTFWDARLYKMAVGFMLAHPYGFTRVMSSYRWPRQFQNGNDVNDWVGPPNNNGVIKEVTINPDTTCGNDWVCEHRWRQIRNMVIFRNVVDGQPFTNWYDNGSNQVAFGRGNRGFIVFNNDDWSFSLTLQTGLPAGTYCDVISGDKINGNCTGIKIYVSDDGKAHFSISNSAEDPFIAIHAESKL
Put plainly: Inhibition of human α-amylase activity in vitro (blue starch, Neo·Amylase Test), HPA. Conditions: final concentration of inhibitor reducing 50% of the activity of the HPA solution; 37° C., 30 minutes. Format: biochemical. On the procedure:
as §1, §2

The next experiment has as its system mice [Crj:CD-1 (ICR)]. Put plainly: Anti-diabetic activity: blood glucose level after oral corn starch loading in mice. The format is in vivo. As to conditions: mice unfed 20 hours; oral DOGGDN 10 mg, 5 mg and 1 mg with 2,000 mg corn starch per kg; 0.5-4.0 hours; t-test; FIG. 1.

One may read the IC50 as the concentration that inhibits the measured activity by half.

Description for mice [Crj:CD-1 (ICR)]: Commercially available healthy mice [Crj:CD-1 (ICR) available from Japan Charles River Co., Ltd.
Blood was collected from the orbital veniplex of each mouse just before administration and after the lapse of 0.5 hour, 1.0 hour, 1.5 hours, 2.0 hours, 3.0 hours and 4.0 hours after administration, and the concentration of glucose in the blood [blood glucose level (mg/dl)] was measured to examine the inhibitory effect against rise of blood glucose level after intake of corn starch, i.e. the anti-diabetic action. The inhibitory effect against rise of blood sugar level was judged by the t-test. The glucose concentration in the blood was determined using a blood glucose level analyzer “[sequence]” [mfd. by Bayer Sankyo Co., Ltd.].

For `CC1OC(OC2C(CO)OC(OC3C(CO)NCC(O)C3O)C(O)C2O)C(O)C(O)C1OC1OC(CO)C(O)C(O)C1O` [GDOGGDN, O-(α-D-glucopyranosyl)-(1→4)-O-(6-deoxy-α-D-glucopyranosyl)-(1→4)-O-(α-D-glucopyranosyl)-(1→4)-deoxynojirimycin], the IC50 came out at 0.03 mM in experiment [1] and 0.05 mM in experiment [2].
As for `CC1OC(OC2C(CO)OC(OC3C(CO)NCC(O)C3O)C(O)C2O)C(O)C(O)C1O` [DOGGDN, O-(6-deoxy)-α-D-glucopyranosyl-(1→4)-O-(α-D-glucopyranosyl)-(1→4)-deoxynojirimycin], in experiment [1], 0.03 mM corresponded to half-maximal inhibition (IC50). The “rise of blood glucose level as compared with the control group” value in the experiment on mice [Crj:CD-1 (ICR)] was “reduced significantly”.
Regarding `OCC1NCC(O)C(O)C1OC1OC(CO)C(OC2OC(CO)C(O)C(O)C2O)C(O)C1O` (stereo not drawn) [GGDN, Maltosyl-deoxynojirimycin, reference compound], the IC50 in experiment [1] and in experiment [2] was 0.26 mM in each case.
